Laboratory results reported in US9676758B2, “1-heteroaryl-indoline-4-carboxamides as modulators of GPR52 useful for the treatment or prevention of disorders related thereto” (Arena Pharmaceuticals, Inc., priority 2015, dated 2017).

System: male Sprague Dawley rats
Assay: Plasma prolactin levels in rats (ELISA)
Assay type: in vivo, rat
Method: Another unwanted side effect of certain antipsychotics is hyperprolactinemia. To examine prolactin levels following the administration of a GPR52 agonist, male Sprague Dawley rats (Harlan Laboratories, San Diego, Calif.) were single-housed, handled, and moved to a private housing room one week prior to testing. Rats were individually handled and sham dosed P.O. for four days prior to testing. For an assessment of haloperidol (0.1 and 1 mg/kg P.O.) and Compound 13 (1, 10, and 100 mg/kg P.O.) on basal prolactin release, rats were dosed with acidic 20% HP-β-cyclodextrin (HBCD) or compound at 3 mL/kg P.O. in their housing room 60 minutes prior to harvest. For interaction studies, rats were dosed with 20% HBCD or Compound 13 (10 mg/kg P.O.) 90 minutes prior to harvest, and additionally with 20% HBCD vehicle or haloperidol (0.3 and 1 mg/kg P.O.) 60 minutes prior to harvest. Rats were individually taken to the harvest room, and trunk blood was collected into 4 mL EDTA tubes following live decapitation. Samples were stored on wet ice until collection was complete, then spun in a cooling centrifuge at 2400 rpm for 20 minutes. Plasma was collected and frozen for subsequent analysis using a Rat Prolactin ELISA kit (ALPCO Diagnostics: Cat#55-PRLRT-E01).
Briefly, frozen plasma was thawed on ice and mixed prior to initiation of the ELISA. Twenty-five microliters of sample plasma along with serially diluted standards (lyophilized purified rat prolactin diluted with rat prolactin calibrator/sample diluent), and calibrator/sample diluent used as a blank were placed in a 96-well plate provided with the ELISA kit. Samples, blank, and standards were measured in duplicate. […] Fifty microliters of stop solution (2M hydrochloric acid) was added to the wells prior to reading on a 96-well plate reader (SpectraMax® 340PC; Molecular Devices, Sunnyvale, Calif.) at […]. The quantity of prolactin in each sample was calculated using a standard curve.

O=C(NCCO)c1cccc2c1CCN2c1cc(Cc2cccc(C(F)(F)F)c2)ccn1 [Compound 13, N-(2-Hydroxyethyl)-1-(4-(3-(trifluoromethyl)benzyl)pyridin-2-yl)indoline-4-carboxamide]
haloperidol-induced increase in prolactin levels (Compound 13 10 mg/kg P.O., at a low dose of haloperidol, FIG. 28B): reversed
prolactin levels (basal prolactin release, haloperidol 0.1 and 1 mg/kg P.O., Compound 13 1, 10, and 100 mg/kg P.O., FIG. 28A): decreased
